The results in this text go back to patent US12533339B2, “Small molecule antiviral drug treatment for human papillomavirus infections” (THE TRUSTEES OF INDIANA UNIVERSITY, priority 2020, dated 2026).

Structures are written as SMILES. Where two headings read alike, the source gives them in different places.

Experiment [1] deals with T1, E6 WT/E6AP (Human papillomavirus type 16, UniProt P03126). Put plainly: biochemical. The experiment is classed as binding. As to conditions: WT 16E6; for inhibition at 10 µM: 10 μM compound; for inhibition at 100 µM: 100 μM compound.
T1 sequence (P03126 8-158): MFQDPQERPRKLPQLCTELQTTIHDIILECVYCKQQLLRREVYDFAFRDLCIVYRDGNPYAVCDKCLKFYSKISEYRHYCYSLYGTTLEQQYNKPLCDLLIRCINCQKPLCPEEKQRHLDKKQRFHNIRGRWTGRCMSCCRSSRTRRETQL
For experiment [2], the target named is T2, E6C51S/E6AP (Human papillomavirus type 16, UniProt P03126, C58S). Description: E6/E6AP binding assay (amylose-bound MBP-16E6, E6AP-BAP activity), C51S 16E6. On the set-up: species or system HPV-16. The following applies: for % Inhibition @ 10 μM E6C51S/E6AP: 10 μM compound; for % Inhibition @ 100 μM E6C51S/E6AP: 100 μM compound.
T2 sequence (P03126 whole entry C58S, looked up): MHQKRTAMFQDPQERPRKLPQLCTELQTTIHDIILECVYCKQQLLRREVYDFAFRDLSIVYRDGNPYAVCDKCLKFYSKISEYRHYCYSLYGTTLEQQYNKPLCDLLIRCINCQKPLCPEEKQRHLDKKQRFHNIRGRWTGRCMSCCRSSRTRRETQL
Experiment [3] deals with T1, E6 WT/E6AP. Put plainly: biochemical. The following applies: at 24 h; for IC50: 2 μM E6 WT pre-incubated with compound; for Emax: E6 WT, read-out: BLI maximal Inhibition (max %) E6 WT/E6AP. The class given is binding.
The target of experiment [4] is T1, E6 WT/E6AP. Put plainly: biochemical. The experiment is classed as binding. The following applies: for Emax: 24 h, read-out: FP maximal inhibition (max %) E6 WT/E6AP; for IC50: FP IC50 at 24 h (μM) E6 WT/E6AP.
The target of experiment [5] is T2, E6C51S/E6AP. Description: BLI binding assay, E6 C51S binding to captured E6AP. Also on record: species or system HPV-16. The following applies: at 24 h; E6 C51S. On the technique in general: Biolayer interferometry detects binding as a change in optical thickness at a sensor tip.

One may read the inhibition as the drop in the measured response relative to a control, in per cent. Lower therefore signals a weak effect. What is called IC50 is the point on the concentration scale where inhibition reaches its midpoint. At E6 WT/E6AP [1], `C=CC(=O)N1CCN(c2nc(-c3ccccc3)nc3sc4c(c23)CCCC4)CC1` [EIN-133, 1-(4-(2-phenyl-5,6,7,8-tetrahydrobenzo[4,5]thieno[2,3-d]pyrimidin-4-yl)piperazin-1-yl)prop-2-en-1-one] had an inhibition at 10 µM of 26 ± 7% and an inhibition at 100 µM of 41 ± 5%. Besides, at E6C51S/E6AP [2], the “% Inhibition @ 10 μM E6C51S/E6AP” value was 0% and the “% Inhibition @ 100 μM E6C51S/E6AP” value is listed as 0%. On E6 WT/E6AP [3], the concentration for half-maximal inhibition (IC50) turned out to be 14.9 ± 6.6 µM and the Emax was 60%. In addition, on E6 WT/E6AP [4], the Emax came out at 9% and half-maximal inhibition (IC50) was put at 10.4 ± 0.7 µM.

At E6 WT/E6AP [1], `C=CC(=O)N1CCN(c2nc(NCc3ccccc3)nc3sc4c(c23)CCCC4)CC1` [EIN-134, 1-(4-(2-(benzylamino)-5,6,7,8-tetrahydrobenzo[4,5]thieno[2,3-d]pyrimidin-4-yl)piperazin-1-yl)prop-2-en-1-one] came in with an inhibition at 10 µM of 18 ± 6% and an inhibition at 100 µM of 35 ± 4%. Further, on E6C51S/E6AP [2], the “% Inhibition @ 10 μM E6C51S/E6AP” value worked out at 0% and the “% Inhibition @ 100 μM E6C51S/E6AP” value came out at 0%. In addition, on E6 WT/E6AP [3], the 50% inhibitory concentration (IC50) stood at 32.6 ± 19.2 µM and the Emax turned out to be 100%. Moreover, on E6 WT/E6AP [4], the Emax came to 11% and 12.1 ± 0.7 µM corresponded to half-maximal inhibition (IC50).

As for `C=CC(=O)N1CCN(c2nc(Cc3ccccc3)nc3sc4c(c23)CCCC4)CC1` [EIN-135, 1-(4-(2-benzyl-5,6,7,8-tetrahydrobenzo[4,5]thieno[2,3-d]pyrimidin-4-yl)piperazin-1-yl)prop-2-en-1-one], at E6 WT/E6AP [1], the inhibition at 10 µM is 0% and testing at 100 µM gave an inhibition of 52 ± 5%. Besides, on E6C51S/E6AP [2], the “% Inhibition @ 10 μM E6C51S/E6AP” value is reported as 12 ± 3% and the “% Inhibition @ 100 μM E6C51S/E6AP” value is 25 ± 4%. Besides, at E6 WT/E6AP [3], the IC50 was determined as 10.9 ± 3.4 µM and the Emax came out at 85%. Moreover, at E6 WT/E6AP [4], the Emax is 27% and the concentration for half-maximal inhibition (IC50) is 15.4 ± 0.4 µM.

On to `C=CC(=O)N1CCN(c2nc(CCc3ccc(F)cc3)nc3sc4c(c23)CCCC4)CC1` [EIN-136, 1-(4-(2-(4-fluorophenethyl)-5,6,7,8-tetrahydrobenzo[4,5]thieno[2,3-d]pyrimidin-4-yl)piperazin-1-yl)prop-2-en-1-one], for which, at E6 WT/E6AP [1], the inhibition at 10 µM was determined as 41 ± 7% and the inhibition at 100 µM is 69 ± 2%. Further, on E6 WT/E6AP [3], the half-inhibitory concentration (IC50) came to 2.7 ± 0.3 µM and the Emax is 100%. Besides, at E6 WT/E6AP [4], the Emax is 55% and inhibition was half-maximal at 12 ± 0.9 µM (IC50).

On to `C=CC(=O)N1CCN(c2nc(CCc3cccc(F)c3)nc3sc4c(c23)CCCC4)CC1` [EIN-137, 1-(4-(2-(3-fluorophenethyl)-5,6,7,8-tetrahydrobenzo[4,5]thieno[2,3-d]pyrimidin-4-yl)piperazin-1-yl)prop-2-en-1-one], for which, on E6 WT/E6AP [1], the inhibition at 10 µM worked out at 35 ± 4% and the inhibition at 100 µM stood at 56 ± 4%. Also, on E6C51S/E6AP [2], the “% Inhibition @ 10 μM E6C51S/E6AP” value was 15 ± 3% and the “% Inhibition @ 100 μM E6C51S/E6AP” value is 16 ± 5%. At E6 WT/E6AP [3], the IC50 was 4.9 ± 0.6 µM and the Emax was 90%.

`C=CC(=O)N1CCN(c2nc(CCc3ccccc3F)nc3sc4c(c23)CCCC4)CC1` [EIN-138, 1-(4-(2-(2-fluorophenethyl)-5,6,7,8-tetrahydrobenzo[4,5]thieno[2,3-d]pyrimidin-4-yl)piperazin-1-yl)prop-2-en-1-one]: on E6 WT/E6AP [1], the inhibition at 10 µM stood at 20 ± 6% and 100 µM produced 57 ± 3% inhibition. Besides, at E6C51S/E6AP [2], the “% Inhibition @ 10 μM E6C51S/E6AP” value is 16 ± 6% and the “% Inhibition @ 100 μM E6C51S/E6AP” value is reported as 19 ± 7%. Besides, at E6 WT/E6AP [3], the half-maximal inhibitory concentration (IC50) was determined as 4.1 ± 0.5 µM and the Emax was found to be 90%.

For `C=CC(=O)N1CCN(c2nc(N(C)Cc3ccccc3)nc3sc4c(c23)CCCC4)CC1` [EIN-139, 1-(4-(2-(benzyl(methyl)amino)-5,6,7,8-tetrahydrobenzo[4,5]thieno[2,3-d]pyrimidin-4-yl)piperazin-1-yl)prop-2-en-1-one], at E6 WT/E6AP [1], the inhibition at 10 µM worked out at 13 ± 7% and the inhibition at 100 µM was 21 ± 4%. In addition, on E6C51S/E6AP [2], the “% Inhibition @ 10 μM E6C51S/E6AP” value worked out at 0% and the “% Inhibition @ 100 μM E6C51S/E6AP” value is 6 ± 3%. In addition, at E6 WT/E6AP [4], the Emax was 8% and inhibition was half-maximal at 33.1 ± 1.3 µM (IC50).

On E6 WT/E6AP [1], `C=CC(=O)N1CCN(c2nc(CCc3cccc(OC)c3)nc3sc4c(c23)CCCC4)CC1` [EIN-143, 1-(4-(2-(3-methoxyphenethyl)-5,6,7,8-tetrahydrobenzo[4,5]thieno[2,3-d]pyrimidin-4-yl)piperazin-1-yl)prop-2-en-1-one] returned an inhibition at 10 µM of 44 ± 9% and an inhibition at 100 µM of 78 ± 3%. Besides, at E6C51S/E6AP [2], the “% Inhibition @ 10 μM E6C51S/E6AP” value is given as 19 ± 7% and the “% Inhibition @ 100 μM E6C51S/E6AP” value was 23 ± 10%. At E6 WT/E6AP [3], the IC50 was 2.5 ± 0.5 µM and the Emax is 100%. The “FP maximal inhibition (max %) E6 WT/E6AP” value at E6 WT/E6AP [4] (at 24 h) is “(max 93%)”.

At E6 WT/E6AP [1], `C=CC(=O)N1CCN(c2nc(CCc3ccc(OC)cc3)nc3sc4c(c23)CCCC4)CC1` [EIN-144, 1-(4-(2-(4-methoxyphenethyl)-5,6,7,8-tetrahydrobenzo[4,5]thieno[2,3-d]pyrimidin-4-yl)piperazin-1-yl)prop-2-en-1-one] registered an inhibition at 10 µM of 12 ± 6% and an inhibition at 100 µM of 45 ± 4%. Further, at E6C51S/E6AP [2], the “% Inhibition @ 10 μM E6C51S/E6AP” value is on record as 9 ± 9% and the “% Inhibition @ 100 μM E6C51S/E6AP” value was 17 ± 5%. On E6 WT/E6AP [3], the half-maximal inhibitory concentration (IC50) is 1.6 ± 0.5 µM and the Emax is 62%. In addition, on E6 WT/E6AP [4], the Emax came out at 63% and the half-inhibitory concentration (IC50) stood at 14.8 ± 1.2 µM.

Take `C=CC(=O)N1CCN(c2nc(CCc3ccccc3OC)nc3sc4c(c23)CCCC4)CC1` [EIN-145, 1-(4-(2-(2-methoxyphenethyl)-5,6,7,8-tetrahydrobenzo[4,5]thieno[2,3-d]pyrimidin-4-yl)piperazin-1-yl)prop-2-en-1-one]: on E6 WT/E6AP [1], the inhibition at 10 µM worked out at 32 ± 4% and testing at 100 µM gave an inhibition of 51 ± 2%. Further, on E6C51S/E6AP [2], the “% Inhibition @ 10 μM E6C51S/E6AP” value was 20 ± 6% and the “% Inhibition @ 100 μM E6C51S/E6AP” value was found to be 23 ± 7%. Moreover, at E6 WT/E6AP [3], the IC50 turned out to be 2 ± 0.9 µM and the Emax was 65%. At E6 WT/E6AP [4], the Emax is 59% and the IC50 was determined as 15 ± 1.2 µM.

On to `CC#CC(=O)N1CCN(c2nc(CCc3cccc(OC)c3)nc3sc4c(c23)CCCC4)CC1` [EIN-147, 1-(4-(2-(3-methoxyphenethyl)-5,6,7,8-tetrahydrobenzo[4,5]thieno[2,3-d]pyrimidin-4-yl)piperazin-1-yl)but-2-yn-1-one], for which the Emax at E6 WT/E6AP [3] came to 100%. In addition, the “BLI maximal Inhibition (max %) E6C51S/E6AP” value at E6C51S/E6AP [5] was “(max 100%)”.

As to `COc1cccc(CCc2nc(N3CCN(C(=O)/C=C/CN(C)C)CC3)c3c4c(sc3n2)CCCC4)c1` [EIN-148, (E)-4-(dimethylamino)-1-(4-(2-(3-methoxyphenethyl)-5,6,7,8-tetrahydrobenzo[4,5]thieno[2,3-d]pyrimidin-4-yl)piperazin-1-yl)but-2-en-1-one], at E6 WT/E6AP [3], the IC50 worked out at 3.3 ± 0.3 µM and the Emax was found to be 100%. Besides, at E6 WT/E6AP [4], the Emax came out at 100% and the half-maximal inhibitory concentration (IC50) worked out at 20.4 ± 3 µM.

Consider `C=CC(=O)N1CCN(c2nc(Cc3ccccc3)nc3ccccc23)CC1` [EIN-156, 1-(4-(2-benzylquinazolin-4-yl)piperazin-1-yl)prop-2-en-1-one], for which, at E6 WT/E6AP [3], the Emax turned out to be 100%. Besides, the “BLI maximal Inhibition (max %) E6C51S/E6AP” value on E6C51S/E6AP [5] is listed as “(max 100%)”.

`C=CC(=O)N1CCN(c2nc(-c3ccccc3)nc3ccccc23)CC1` [EIN-157, 1-(4-(2-phenylquinazolin-4-yl)piperazin-1-yl)prop-2-en-1-one]: the Emax on E6 WT/E6AP [3] stood at 100%. Also, the “BLI maximal Inhibition (max %) E6C51S/E6AP” value at E6C51S/E6AP [5] is on record as “(max 100%)”.
